Data: patent publication US5214034A, “Catechol derivatives, and preventive and remedial preparations for regressive disorders in the central nervous system containing the same” (priority 1986, dated 1993)
Like-named read-outs stand apart in the source and are kept apart here.

Tests used:
Acute toxicity (LD50) = settings: mouse, in vivo
Experimental: The catechol derivative having normal type saturated lower alkyl groups on the ring was administered by intravenous injection (i.v.), intraperitoneal injection (i.p.) or oral route (p.o.) to male ddy mice of 4-week old. The LD50 values (mg/kg) were measured by an ordinary method.

NGF = NGF production in the central nervous system of normal rats by intraperitoneal injection (NGF content of brain tissue, ELISA); assay type: in vivo, rat (Wistar male); settings: Table 7, i.p., three times every other day; for NGF content after 48 hr.: 48 hours after final administration; for NGF content after 7 days: 7 days after final administration
Experimental: The derivative (A), e.g. R=Two H, R1 =H and R2 =n-propyl (hereinafter referred to as 4-n-propylcatechol), was administered to normal rats by intraperitoneal injection, and the effect was examined.
4-n-Propylcatechol was administered by intraperitoneal injection 4 times every other day in a dosage of 5 mg/kg. The rats were killed two days after the final administration. The NGF content of each parts in brain was measured. The content was compared with those of control group which was administered saline alone.
A variety of the derivative was administered three times every other day. The content of NGF in the forebrain after 48 hours and 7 days from the final administration was measured and illustrated in Table 7.
Wistar male rats (9-10-week old, 200-250 g of weight) were intraperitoneally injected with the test derivative in a volume of 0.5 ml as a saline solution, emulsion or suspension. Dose and administration times were the same as above. The rats were killed by a hard spinal blow two days after the final administration. Each parts of brain were dissected and subjected to the following treatment under ice cooling.
Each parts of brain were weighed and homogenized for 30 strokes by a Dounce type homogenizer in a homogenization buffer (0.1 M Tris-HCl, containing 2% bovine serum albumin fraction V, 2% gelatin, 1.0 M NaCl, 0.02% NaN3, 2 mM EDTA and 2.6 kiu/ml of aprotinin, pH 7.6) at a concentration of 10% (W/V) (only septum 5% (W/V)). Each homogenate was centrifuged at 100,000 xg for 10 minutes, and 50 μl of supernatant was added with the same amount of a dilution buffer (0.1 M Tris-HCl containing 2% bovine serum albumin fraction V, 0.05% NaN3 and 20 mM CaCl2, pH 7.6). Determination was conducted in accordance with a method of S. Furukawa et al. by using a high sensitivity ELISA system on 8-NGF which was described in J. Neurochem., 40, 734-744 (1983). Lower limit of determination is 0.25 pg/ml. Data are indicated as a mean value ±SE on the NGF content of tissue (pg/mg wet tissue) of five rats.

[1] = test system: production and secretion of NGF on L-M cells; assay: Promoting action for the production and secretion of NGF on L-M cells of mouse (ELISA); assay type: cell-based; settings: Mus musculus
Excerpt: Catecholamines have also been found in a relatively high concentration to accelerate these functions without being mediated by adrenergic receptors [Y. Furukawa et al., J. Biol. Chem., 261, 6039-6047 (1986)].
The compound having a high activity in Table 1, that is, the catechol derivative having a n-alkyl group in the 3 or 4 position on the ring has been observed an acute cell toxicity in higher concentrations. The toxicity was considered the result of two hydroxyl groups in the catechol structure. Then the hydroxyl groups were esterified or etherified and the resulting derivative was examined the effect on the activity for the production and secretion of NGF.
The experiment was performed according to the procedures of Y. Furukawa et al. which is described in J. Bis Chem., 261, 6039-6047 (1986).
The medium was cultured for 3 days at a temperature of 37° C. After completing the confluency (about 10^6 cells/well), the medium was changed to Medium 199 (0.5 ml/well) containing 0.5% bovine serum albumin (Fraction V, a product of Armour Co.). The sample of the derivative is contained in the medium at a prescribed concentration as illustrated in the Tables.

[2] = test system: production and secretion of NGF in brain astroglial cells; assay: Promoting activity for the production and secretion of NGF in brain astroglial cells of mouse (ELISA)
Experimental: The experiment was performed by inducing the astroglial cells from mouse forebrain to culture system according to the procedures of S. Furukawa et al. which is described in Biochem. Biophys. Res. Commun., 136, 57-63 (1986).
That is, forebrains of 8-day old mice were dissected out and cut into small pieces. […] Cells and cell clamps were recovered by centrifugation at 200 xg for 5 minutes. They were cultured in Dulbecco modified Eagle's medium (a product of Gibco Co. hereinafter abbreviated as DMEM) containing 10% of fetal calf serum, […] of penicillin, and 50 μg/ml of streptomycin, for 10 to 14 days with medium changes every 3 days. After completing confluency, the cells were dissociated by trypsin treatment and recultured in new culture flasks. This procedure was repeated further twice and more. […] The cells will hereinafter be referred to as astroglial cells.
Astroglial cells were innoculated in 24-well plates having a well surface area of 2.1 cm^2 (a product of Falcon Co.) at a cell density of about 3×10^4 cells/well and cultured for 3 days in DMEM . medium supplemented with 10% of fetal calf serum. After completing confluency about 10^7 cells/well), the medium was changed to DMEM medium (0.5 ml/well) supplemented with 0.5% of bovine serum albumin ((fraction V) and cultured for 3 days. The culture was further continued with medium changes every 3 days. After cells were practically synchronized in the quiscent stage, the medium was changed to 0.5 ml of the medium supplemented with 0.5% of bovine serum albumin and containing a prescribed concentration of test sample as illustrated in Tables. […] Data are expressed as fold increase in NGF content over that in the absence of the test sample. […] Data are presented as means ±SE of four determinations.

[3] = ip, intraperitoneal injection, read-out: LD50 i.p.
[4] = intravenous injection, read-out: LD50 i.v.
[5] = oral route, read-out: LD50 p.o.
[6] = 24 h, read-out: Ratio of NGF increase
[7] = 24 h, read-out: Ratio of NGF increase, Table 3, 0.10 mM, 24 hours, mean ± SE of four determinations
[8] = 24 h, read-out: Ratio of NGF increase, Table 3, 0.25 mM, 24 hours, mean ± SE of four determinations
[9] = 24 h, read-out: Ratio of NGF increase, 24-hr culture
[10] = 48 h, read-out: Ratio of NGF increase, 48-hr culture

Row | Compound | LD50 (Acute toxicity (LD50); [3]) [mg/kg] | LD50 (Acute toxicity (LD50); [4]) [mg/kg] | LD50 (Acute toxicity (LD50); [5]) [mg/kg] | NGF content after 48 hr. (NGF) | NGF content after 7 days (NGF) | fold induction at 30 µM [1, 6] | fold induction at 100 µM [1, 6] | fold induction at 100 µM [2, 7] | fold induction at 250 µM [2, 8] | further results
1 | CCCc1ccc2c(c1)OC(C)(C)O2 [R = --C(CH3)2 --, R1 = H, R2 = n-Propyl, 5-n-Propyl-2,2-dimethyl-1,3-benzodioxol] | > 1500 | > 500 | > 3500 | 1.15 ± 0.18 pg/mg wet tissue of frontal co | 1.51 ± 0.49 pg/mg wet tissue of frontal co |  |  |  |  | 
2 | CCCc1ccc2oc(=O)c(=O)oc2c1 [R = --CO.CO--, R1 = H, R2 = n-Propyl, 6-n-propyl-1,4-benzodioxine-2,3-dione] | > 1250 | > 250 | > 3000 | 1.54 ± 0.20 pg/mg wet tissue of frontal co | 2.02 ± 0.47 pg/mg wet tissue of frontal co |  |  |  |  | 
3 | CCc1ccc(O)c(O)c1 [R = Two H, R1 = H, R2 = Ethyl, 4-ethylcatechol] | > 300 | > 75 | > 1000 | 1.96 ± 0.42 pg/mg wet tissue of frontal co | 1.73 ± 0.39 pg/mg wet tissue of frontal co | 10 ± 0.97 | 12.1 ± 1.09 | 55.2 ± 3.24 | 64.7 ± 4.26 | 
4 | Cc1ccc(O)c(O)c1 [R = Two H, R1 = H, R2 = Methyl, 4-Methylcatechol] | > 200 | > 50 | > 500 | 2.26 ± 0.24 pg/mg wet tissue of frontal co | 1.64 ± 0.46 pg/mg wet tissue of frontal co | 8.91 ± 0.43 | 2.36 ± 1.9 | 80.8 ± 4.21 | 4.89 ± 1.37 | fold induction at 30 µM [1, 9]: 8.77 ± 0.66; fold induction at 150 µM [1, 9]: 2.87 ± 0.54; fold induction at 30 µM [1, 10]: 9.21 ± 0.69; fold induction at 150 µM [1, 10]: 2.49 ± 0.88; fold induction at 100 µM ([2]; 24 h, read-out: Ratio of NGF increase, 24-hr culture, Table 4, 0.10 mM, 24-hr culture): 77.3 ± 9.21; fold induction at 250 µM ([2]; 24 h, read-out: Ratio of NGF increase, 24-hr culture, Table 4, 0.25 mM, 24-hr culture): 6.59 ± 1.34; fold induction at 100 µM ([2]; 48 h, read-out: Ratio of NGF increase, 48-hr culture, Table 4, 0.10 mM, 48-hr culture): 106 ± 7.61; fold induction at 250 µM ([2]; 48 h, read-out: Ratio of NGF increase, 48-hr culture, Table 4, 0.25 mM, 48-hr culture): 2.47 ± 1.22
5 | CCCCc1ccc(O)c(O)c1 [R = Two H, R1 = H, R2 = n-Butyl, 4-n-butylcatechol] | > 500 | > 150 | > 1500 | 1.88 ± 0.46 pg/mg wet tissue of frontal co | 2.25 ± 0.33 pg/mg wet tissue of frontal co | 8.21 ± 1.1 | 14 ± 1.33 | 59.7 ± 3 | 88.3 ± 2.47 | 
6 | Cc1cccc(O)c1O [R = Two H, R1 = Methyl, R2 = H] |  |  |  |  |  | 8.34 ± 0.82 | 3.92 ± 1.23 | 76.3 ± 6.34 | 5.02 ± 1.98 | LD50 (Acute toxicity (LD50); ip, read-out: LD50 i.p.): > 200 mg/kg; LD50 (Acute toxicity (LD50); iv, read-out: LD50 i.v.): > 50 mg/kg; LD50 (Acute toxicity (LD50); po, read-out: LD50 p.o.): > 500 mg/kg
7 | CCCc1cccc(O)c1O [R = Two H, R1 = n-Propyl, R2 = H] |  |  |  | 2.03 ± 0.37 pg/mg wet tissue of frontal co | 2.00 ± 0.43 pg/mg wet tissue of frontal co | 9.81 ± 0.92 | 16.3 ± 2.04 | 72.9 ± 7.09 | 97 ± 9.24 | LD50 (Acute toxicity (LD50); ip, read-out: LD50 i.p.): > 500 mg/kg; LD50 (Acute toxicity (LD50); iv, read-out: LD50 i.v.): > 150 mg/kg; LD50 (Acute toxicity (LD50); po, read-out: LD50 p.o.): > 1500 mg/kg
8 | CCCc1ccc(OC(C)=O)c(OC(C)=O)c1 [R = Two acetyl, R1 = H, R2 = n-Propyl, 1,2-diacetoxy-4-propylbenzene] | > 750 | > 250 | > 2500 | 1.71 ± 0.28 pg/mg wet tissue of frontal co | 2.16 ± 0.46 pg/mg wet tissue of frontal co |  |  |  |  | 
9 | CNC[C@H](O)c1ccc(O)c(O)c1 [l-epinephrine, reference compound] |  |  |  |  |  |  |  |  |  | fold induction at 50 µM ([1]; 24 h, read-out: activity (NGF increase), 0.05 mM): 6.29 ± 0.11; fold induction at 150 µM ([1]; 24 h, read-out: activity (NGF increase), 0.15 mM): 14 ± 0.83; fold induction at 100 µM ([2]; 24 h, read-out: activity (NGF increase), 0.10 mM): 8.62 ± 1.21; fold induction at 250 µM ([2]; 24 h, read-out: activity (NGF increase), 0.25 mM): 14.6 ± 2.67
